# Source: article PMC5829263, “Homoarginine and inhibition of human arginase activity: kinetic characterization and biological relevance” (Scientific Reports, 2018)
# Where “and” joins values, the source holds several entries; their conditions need not be identical. Identical values can stand only once. Entries after “also recorded” stand apart in the source; their conditions may differ.
# Tests used:
# arginase 1 [1] = assay: HOMOARG as a substrate for arginase 1, formation of LYS by UPLC-MS; assay type: biochemical, human; conditions: LYS limit of detection 0.3 µM
# arginase 2 [2] = assay: HOMOARG as a substrate for arginase 2, formation of LYS by UPLC-MS; assay type: biochemical, human; conditions: LYS limit of detection 0.3 µM
# arginase 1 [3] = conditions: arginase 1 inhibition; ref Ikemoto et al. 12; cited from earlier work
# arginase 2 [4] = conditions: arginase 2 inhibition; ref Colleluori and Ash 17; cited from earlier work
# [5] = target: T1, recombinant human arginase 1 (Homo sapiens, UniProt P05089); assay: Arginase 1 inhibition, UPLC-MS measurement of ARG to ORN conversion in HEK293T cell lysate; conditions: for % of control activity at the corresponding [Inhibitor] ± SE: mean of two experiments;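 as to all read-outs here: arginase 1–expressing HEK293T lysate at 0.05 mg/mL in pH 7.4 phosphate buffer, inhibitor preincubated 5 min with enzyme, then reaction started by adding ARG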
# T1 sequence (P05089 1-322): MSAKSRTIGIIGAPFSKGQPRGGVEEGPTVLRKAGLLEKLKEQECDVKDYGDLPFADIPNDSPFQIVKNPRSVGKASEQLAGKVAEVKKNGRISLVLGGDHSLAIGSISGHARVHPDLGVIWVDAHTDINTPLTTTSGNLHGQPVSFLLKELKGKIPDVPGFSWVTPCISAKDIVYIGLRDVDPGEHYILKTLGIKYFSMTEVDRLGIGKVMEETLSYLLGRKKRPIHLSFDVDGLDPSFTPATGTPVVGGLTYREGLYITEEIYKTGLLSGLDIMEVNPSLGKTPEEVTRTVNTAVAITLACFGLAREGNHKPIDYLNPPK
# Experimental: (§1) Following a 5-min pre-equilibration period reactions were initiated by the addition of the cell lysate solution in 0.05 M phosphate buffer to a pre-equilibrated aqueous solution of the substrate (ARG).
# (§2) The samples were vortex mixed (20 sec) and cooled in an ice/water bath for 10 min prior to centrifugation (5 min, 18,000 × g, room temperature) to precipitate the proteins. An aliquot of the supernatant layer was diluted with a 7:3 mobile phase A/mobile phase B solution into glass UPLC vial inserts.
# (§3) Incubation mixtures comprised of HEK293T cell lysate expressing arginase 1 (0.05 mg/mL) or arginase 2 (0.1 mg/mL), phosphate buffer (0.05 M, pH 7.4), inhibitor (0, 0.1, 1, 10, 100, 1000 or 10000 μM) and ARG (0.1, 2 or 3 mM). Following a 5-min pre-incubation of the potential inhibitor with arginase 1 or arginase 2, reactions were initiated by the addition of a pre-equilibrated solution of the substrate ARG.
# Ki values were derived from fitting the competitive inhibition equation to experimental data. Ki data are the mean of three singlicate experiments.
# [6] = target: T2, recombinant human arginase 2 (Homo sapiens, UniProt P78540); assay: Arginase 2 inhibition, UPLC-MS measurement of ARG to ORN conversion in HEK293T cell lysate; conditions: for % of control activity at the corresponding [Inhibitor] ± SE: mean of two experiments;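 as to all read-outs here: HEK293T lysate carrying arginase 2 at 0.1 mg/mL in 0.05 M phosphate buffer pH 7.4, inhibitor preincubated with enzyme 5 min before ARG addition started the reaction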
# T2 sequence (P78540 23-354): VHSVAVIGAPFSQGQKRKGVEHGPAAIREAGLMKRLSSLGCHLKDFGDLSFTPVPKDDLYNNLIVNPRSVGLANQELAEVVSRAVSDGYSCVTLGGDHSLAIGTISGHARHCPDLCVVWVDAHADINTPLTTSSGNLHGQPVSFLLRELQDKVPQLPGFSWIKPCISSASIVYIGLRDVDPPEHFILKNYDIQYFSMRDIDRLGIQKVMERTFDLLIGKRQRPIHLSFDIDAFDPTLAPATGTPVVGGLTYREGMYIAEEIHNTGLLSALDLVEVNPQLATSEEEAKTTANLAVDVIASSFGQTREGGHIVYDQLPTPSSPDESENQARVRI
# Experimental: as §1, §2, §3
# Sample were diluted 3:17 in mobile phase solution prior injection.
structure (smiles),measurement,setting,value
"N=C(N)NCCCC[C@H](N)C(=O)O [HOMOARG, homoarginine]","substrate activity, formation of LYS from HOMOARG",arginase 1 [1],could not detect; also recorded: not a substrate
same,"substrate activity, formation of LYS from HOMOARG",arginase 2 [2],could not detect; also recorded: not a substrate
same,Ki,arginase 1 [3],5 to 5.2 mM
same,Ki,arginase 2 [4],39 mM
same,inhibition of arginase 1 activity,"[5]; ARG 100 µM (physiological), inhibitor 1 mM",30%
same,inhibition of arginase 1 activity,"[5]; ARG 100 µM (physiological), inhibitor 10 mM",76%
same,inhibition of arginase 1 activity,"[5]; ARG 3 mM (Km), inhibitor 1 mM",14%
same,inhibition of arginase 1 activity,"[5]; ARG 3 mM (Km), inhibitor 10 mM",50%
same,inhibitory effect on arginase 1 activity at physiological inhibitor concentrations,"[5]; LYS 100–1000 µM, HOMOARG 1–10 µM",no significant inhibitory effects
same,% of control activity at the corresponding [Inhibitor] ± SE,"[5]; arginase 1, ARG 100 µM, inhibitor 1 µM",112 ± 4%
same,% of control activity at the corresponding [Inhibitor] ± SE,"[5]; arginase 1, ARG 100 µM, inhibitor 10 µM",107 ± 4%
same,% of control activity at the corresponding [Inhibitor] ± SE,"[5]; arginase 1, ARG 100 µM, inhibitor 100 µM",85 ± 1%
same,% of control activity at the corresponding [Inhibitor] ± SE,"[5]; arginase 1, ARG 100 µM, inhibitor 1,000 µM",70 ± 1%
same,% of control activity at the corresponding [Inhibitor] ± SE,"[5]; arginase 1, ARG 100 µM, inhibitor 10,000 µM",24 ± 8%
same,% of control activity at the corresponding [Inhibitor] ± SE,"[5]; arginase 1, ARG 3 mM, inhibitor 1 µM",106 ± 7%
same,% of control activity at the corresponding [Inhibitor] ± SE,"[5]; arginase 1, ARG 3 mM, inhibitor 10 µM",110 ± 1%
same,% of control activity at the corresponding [Inhibitor] ± SE,"[5]; arginase 1, ARG 3 mM, inhibitor 100 µM",96 ± 6%
same,% of control activity at the corresponding [Inhibitor] ± SE,"[5]; arginase 1, ARG 3 mM, inhibitor 1,000 µM",86 ± 13%
same,% of control activity at the corresponding [Inhibitor] ± SE,"[5]; arginase 1, ARG 3 mM, inhibitor 10,000 µM",50 ± 1%
same,activity retained vs. control,"[5]; arginase 1, physiological HOMOARG concentrations (1–10 µM)",90%
same,inhibition model fitting the data,"[5]; arginase 1, poorly fit by uncompetitive, noncompetitive and mixed models",competitive
same,IC50,"[5]; read-out: IC50 ( ± SE), arginase 1, ARG 3 mM",8.14 ± 0.52 mM
same,Ki,"[5]; read-out: Ki ( ± SE), arginase 1, competitive inhibition model, ARG 0.6–15 mM",6.1 ± 0.5 mM
same,inhibition of arginase 2,"[6]; ARG 100 µM, inhibitor 1 mM",47%
same,inhibition of arginase 2,"[6]; ARG 100 µM, inhibitor 10 mM",88%
same,% of control activity at the corresponding [Inhibitor] ± SE,"[6]; arginase 2, ARG 100 µM, inhibitor 1 µM",107 ± 2%
same,% of control activity at the corresponding [Inhibitor] ± SE,"[6]; arginase 2, ARG 100 µM, inhibitor 10 µM",105 ± 5%
same,% of control activity at the corresponding [Inhibitor] ± SE,"[6]; arginase 2, ARG 100 µM, inhibitor 100 µM",100 ± 5%
same,% of control activity at the corresponding [Inhibitor] ± SE,"[6]; arginase 2, ARG 100 µM, inhibitor 1,000 µM",53 ± 4%
same,% of control activity at the corresponding [Inhibitor] ± SE,"[6]; arginase 2, ARG 100 µM, inhibitor 10,000 µM",12 ± 5%
same,% of control activity at the corresponding [Inhibitor] ± SE,"[6]; arginase 2, ARG 2 mM, inhibitor 1 µM",95 ± 3%
same,% of control activity at the corresponding [Inhibitor] ± SE,"[6]; arginase 2, ARG 2 mM, inhibitor 10 µM",106 ± 2%
same,% of control activity at the corresponding [Inhibitor] ± SE,"[6]; arginase 2, ARG 2 mM, inhibitor 100 µM",94 ± 2%
same,% of control activity at the corresponding [Inhibitor] ± SE,"[6]; arginase 2, ARG 2 mM, inhibitor 1,000 µM",72 ± 1%
same,% of control activity at the corresponding [Inhibitor] ± SE,"[6]; arginase 2, ARG 2 mM, inhibitor 10,000 µM",15 ± 8%
same,activity retained vs. control,"[6]; arginase 2, physiological HOMOARG concentrations (1–10 µM)",90%
same,inhibition model fitting the data,"[6]; arginase 2, poorly fit by uncompetitive, noncompetitive and mixed models",competitive
same,inhibition of arginase 2 at physiological inhibitor concentrations,[6]; physiological LYS and HOMOARG concentrations,no significant inhibition
same,IC50,"[6]; read-out: IC50 ( ± SE), arginase 2, ARG 2 mM",2.5 mM and 2.52 mM
same,Ki,"[6]; read-out: Ki ( ± SE), arginase 2, competitive inhibition model, ARG 0.5–8 mM",1.7 mM and 1.73 mM
